Measurements reported in patent US20070142392A1, “Uses of rifamycins” (ActivBiotics, Inc., priority 2005, published 2007).
In brackets after ≈: the same amount, converted by molar mass.

Legend:
Format in all cases: cell-based
C. trachomatis = experiment: MIC values, C. trachomatis (Table 2)
S. pneumo. = experiment: MIC values, S. pneumo. (Tables 1-4)
E. faecalis = experiment: MIC values, E. faecalis (Tables 1-4); conditions: for MIC F. faecalis: Table 2
H. flu = tested on: H. flu
S. aureus = experiment: MIC values, S. aureus (Tables 1-4)
E. coli = experiment: MIC values, E. coli (Tables 1-4)

| Compound | MIC C. trachomatis (C. trachomatis) | MIC S. pneumo. (S. pneumo.) | MIC F. faecalis (E. faecalis) | MIC H. flu (H. flu) | MIC S. aureus (S. aureus) | MIC E. coli (E. coli) | MIC E. faecalis (E. faecalis) |
| --- | --- | --- | --- | --- | --- | --- | --- |
| CO[C@H]1/C=C/O[C@@]2(C)Oc3c(C)c(O)c4c(=O)c(c5oc6c7c(cc(O)c6nc-5c4c3C2=O)N(C)CCN7C)NC(=O)/C(C)=C\C=C\[C@H](C)[C@H](O)[C@@H](C)[C@@H](O)[C@@H](C)[C@H](OC(C)=O)[C@@H]1C [Compound 80] | 0.064 ng/mL (≈ 0.0723 nM) | 0.12 ng/mL (≈ 0.136 nM) | 1000 ng/mL (≈ 1130 nM) | 1000 ng/mL (≈ 1130 nM) | 8 ng/mL (≈ 9.04 nM) | 8000 ng/mL (≈ 9040 nM) | – |
| CO[C@H]1/C=C/O[C@@]2(C)Oc3c(C)c(O)c4c(=O)c(c5oc6c7c(cc(O)c6nc-5c4c3C2=O)N(C)CCN7C)NC(=O)/C(C)=C\C=C\[C@H](C)[C@H](O)[C@@H](C)[C@@H](O)[C@@H](C)[C@H](O)[C@@H]1C [Compound 81] | 1 ng/mL (≈ 1.19 nM) | 60 ng/mL (≈ 71.2 nM) | 1000 ng/mL (≈ 1190 nM) | 2000 ng/mL (≈ 2370 nM) | 500 ng/mL (≈ 593 nM) | 8000 ng/mL (≈ 9490 nM) | – |
| CO[C@H]1/C=C/O[C@@]2(C)Oc3c(C)c(O)c4c(=O)c(c5oc6c7c(cc(O)c6nc-5c4c3C2=O)N(C)CCCN7C)NC(=O)/C(C)=C\C=C\[C@H](C)[C@H](O)[C@@H](C)[C@@H](O)[C@@H](C)[C@H](OC(C)=O)[C@@H]1C [Compound 82] | 0.064 ng/mL (≈ 0.0712 nM) | 8 ng/mL (≈ 8.9 nM) | 4000 ng/mL (≈ 4450 nM) | 2000 ng/mL (≈ 2220 nM) | 60 ng/mL (≈ 66.7 nM) | >8000 ng/mL | – |
| CO[C@H]1/C=C/O[C@@]2(C)Oc3c(C)c(O)c4c(=O)c(c5oc6c7c(cc(O)c6nc-5c4c3C2=O)N(C)CCCN7C)NC(=O)/C(C)=C\C=C\[C@H](C)[C@H](O)[C@@H](C)[C@@H](O)[C@@H](C)[C@H](O)[C@@H]1C [Compound 83] | 1 ng/mL (≈ 1.17 nM) | 0.12 ng/mL (≈ 0.14 nM) | 1000 ng/mL (≈ 1170 nM) | 2000 ng/mL (≈ 2330 nM) | 120 ng/mL (≈ 140 nM) | >8000 ng/mL | – |
| CO[C@H]1/C=C/O[C@@]2(C)Oc3c(C)c(O)c4c(=O)c(c5oc6c7c(cc(O)c6nc-5c4c3C2=O)N(C(C)C)CCN7C(C)C)NC(=O)/C(C)=C\C=C\[C@H](C)[C@H](O)[C@@H](C)[C@@H](O)[C@@H](C)[C@H](OC(C)=O)[C@@H]1C [Compound 84] | 10 ng/mL (≈ 10.6 nM) | 8 ng/mL (≈ 8.5 nM) | 4000 ng/mL (≈ 4250 nM) | 2000 ng/mL (≈ 2130 nM) | 60 ng/mL (≈ 63.8 nM) | >8000 ng/mL | – |
| CO[C@H]1/C=C/O[C@@]2(C)Oc3c(C)c(O)c4c(=O)c(c5n(C)c6ccccc6nc-5c4c3C2=O)NC(=O)/C(C)=C\C=C\[C@H](C)[C@H](O)[C@@H](C)[C@@H](O)[C@@H](C)[C@H](O)[C@@H]1C [Compound 134] | – | 500 ng/mL (≈ 661 nM) | – | 2000 ng/mL (≈ 2650 nM) | 500 ng/mL (≈ 661 nM) | 8000 ng/mL (≈ 10600 nM) | 2000 ng/mL (≈ 2650 nM) |
| CO[C@H]1/C=C/O[C@@]2(C)Oc3c(C)c(O)c4c(=O)c(c5oc6cccc(O)c6nc-5c4c3C2=O)NC(=O)/C(C)=C\C=C\[C@H](C)[C@H](O)[C@@H](C)[C@@H](O)[C@@H](C)[C@H](O)[C@@H]1C [Compound 136] | – | 2 ng/mL (≈ 2.64 nM) | – | 250 ng/mL (≈ 329 nM) | 4 ng/mL (≈ 5.27 nM) | 8000 ng/mL (≈ 10500 nM) | 120 ng/mL (≈ 158 nM) |
| CO[C@H]1/C=C/O[C@@]2(C)Oc3c(C)c(O)c4c(=O)c(c5oc6ccc(F)cc6nc-5c4c3C2=O)NC(=O)/C(C)=C\C=C\[C@H](C)[C@H](O)[C@@H](C)[C@@H](O)[C@@H](C)[C@H](O)[C@@H]1C [Compound 138] | – | 60 ng/mL (≈ 78.9 nM) | – | 500 ng/mL (≈ 657 nM) | 30 ng/mL (≈ 39.4 nM) | >8000 ng/mL | 500 ng/mL (≈ 657 nM) |
| CO[C@H]1/C=C/O[C@@]2(C)Oc3c(C)c(O)c4c(=O)c(c5oc6cc(F)ccc6nc-5c4c3C2=O)NC(=O)/C(C)=C\C=C\[C@H](C)[C@H](O)[C@@H](C)[C@@H](O)[C@@H](C)[C@H](O)[C@@H]1C [Compound 139] | – | 30 ng/mL (≈ 39.4 nM) | – | 500 ng/mL (≈ 657 nM) | 30 ng/mL (≈ 39.4 nM) | >8000 ng/mL | 500 ng/mL (≈ 657 nM) |
| COC1C=COC2(C)Oc3c(C)c(O)c4c(=O)c(c5oc6cc(N7CC8CCCNC8C7)cc(O)c6nc-5c4c3C2=O)NC(=O)C(C)=CC=CC(C)C(O)C(C)C(O)C(C)C(OC(C)=O)C1C (stereo not drawn) [Compound 141] | – | 0.25 ng/mL (≈ 0.27 nM) | – | 2000 ng/mL (≈ 2160 nM) | 15 ng/mL (≈ 16.2 nM) | 8000 ng/mL (≈ 8650 nM) | 500 ng/mL (≈ 541 nM) |
| COC1C=COC2(C)Oc3c(C)c(O)c4c(=O)c(c5oc6cc(N7CC8CCCNC8C7)cc(O)c6nc-5c4c3C2=O)NC(=O)C(C)=CC=CC(C)C(O)C(C)C(O)C(C)C(O)C1C (stereo not drawn) [Compound 142] | – | 4 ng/mL (≈ 4.53 nM) | – | 4000 ng/mL (≈ 4530 nM) | 120 ng/mL (≈ 136 nM) | >8000 ng/mL | 4000 ng/mL (≈ 4530 nM) |
